Laboratory results reported in ChEMBL document CHEMBL3774375, “Structure-Based Identification of Inhibitory Fragments Targeting the p300/CBP-Associated Factor Bromodomain” (J Med Chem, 2016).
Active and inactive are the calls of the source. No cut-off for these calls is given here.

Assays:
[1] = target: T1, Histone acetyltransferase KAT2B (Homo sapiens, UniProt Q92831)
Target sequence in this assay (Q92831 whole entry, looked up): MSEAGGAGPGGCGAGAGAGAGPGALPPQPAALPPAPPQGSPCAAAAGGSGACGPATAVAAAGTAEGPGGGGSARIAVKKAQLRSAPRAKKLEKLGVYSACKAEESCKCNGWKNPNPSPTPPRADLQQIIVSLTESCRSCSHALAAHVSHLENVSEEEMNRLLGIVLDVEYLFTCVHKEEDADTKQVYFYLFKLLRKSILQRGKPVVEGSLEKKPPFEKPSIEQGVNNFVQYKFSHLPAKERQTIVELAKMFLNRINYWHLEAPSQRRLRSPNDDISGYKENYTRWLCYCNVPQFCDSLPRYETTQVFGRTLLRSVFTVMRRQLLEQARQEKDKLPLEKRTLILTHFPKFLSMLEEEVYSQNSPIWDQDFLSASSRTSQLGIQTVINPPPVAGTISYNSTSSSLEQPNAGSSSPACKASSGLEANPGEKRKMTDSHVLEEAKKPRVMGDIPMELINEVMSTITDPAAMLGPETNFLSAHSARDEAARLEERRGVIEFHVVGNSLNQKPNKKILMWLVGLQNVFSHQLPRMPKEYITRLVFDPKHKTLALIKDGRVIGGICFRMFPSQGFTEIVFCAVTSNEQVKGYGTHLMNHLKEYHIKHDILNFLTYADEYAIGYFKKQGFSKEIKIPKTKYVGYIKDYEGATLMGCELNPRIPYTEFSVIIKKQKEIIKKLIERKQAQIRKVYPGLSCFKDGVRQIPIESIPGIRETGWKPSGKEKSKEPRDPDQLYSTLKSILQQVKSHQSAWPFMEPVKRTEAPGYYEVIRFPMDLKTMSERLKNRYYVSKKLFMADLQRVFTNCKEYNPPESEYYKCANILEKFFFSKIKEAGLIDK
Description: Binding affinity to recombinant N-terminal His-tagged PCAF (715 to 831 residues) (unknown origin) expressed in Escherichia coli Rosetta cells at 1 mM by differential scanning fluorimetry

[2] = target: T2, Bromodomain-containing protein 9 (Homo sapiens) (UniProt Q9H8M2); test: Inhibition of BRD9 (unknown origin) at 25 uM by alphascreen assay
T2 sequence (whole entry): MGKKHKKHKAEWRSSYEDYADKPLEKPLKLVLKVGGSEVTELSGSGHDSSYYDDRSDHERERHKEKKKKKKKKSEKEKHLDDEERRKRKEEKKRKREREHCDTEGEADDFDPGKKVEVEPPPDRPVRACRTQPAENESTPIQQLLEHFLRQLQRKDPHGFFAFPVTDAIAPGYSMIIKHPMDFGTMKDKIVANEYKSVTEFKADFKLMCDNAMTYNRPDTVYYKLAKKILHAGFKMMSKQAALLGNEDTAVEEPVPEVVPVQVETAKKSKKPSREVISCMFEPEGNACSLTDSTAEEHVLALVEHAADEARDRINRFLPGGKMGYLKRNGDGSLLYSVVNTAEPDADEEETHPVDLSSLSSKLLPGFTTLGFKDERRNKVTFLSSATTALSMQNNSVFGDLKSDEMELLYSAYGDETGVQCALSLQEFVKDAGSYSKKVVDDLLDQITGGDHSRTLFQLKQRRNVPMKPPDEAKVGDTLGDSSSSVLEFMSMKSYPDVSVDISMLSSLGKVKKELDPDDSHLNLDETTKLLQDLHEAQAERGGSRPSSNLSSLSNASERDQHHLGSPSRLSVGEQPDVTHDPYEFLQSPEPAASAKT

[3] = target: T1, Histone acetyltransferase KAT2B; test: Binding affinity to recombinant N-terminal His-tagged PCAF (715 to 831 residues) (unknown origin) expressed in Escherichia coli Rosetta cells at 0.5 mM by differential scanning fluorimetry
Target sequence in this assay (Q92831 whole entry, looked up): as the sequence (Q92831 whole entry, looked up) above

[4] = target: T1, Histone acetyltransferase KAT2B; test: Binding affinity to N-terminal His-tagged PCAF (715 to 831 residues) (unknown origin) expressed in Escherichia coli Rosetta cells by isothermal titration calorimetry
Target sequence in this assay (Q92831 whole entry): as the sequence (Q92831 whole entry, looked up) above

[5] = target: Chromatin remodeling regulator CECR2 (Homo sapiens) (UniProt Q9BXF3); test: Binding affinity to recombinant human CECR2 by differential scanning fluorimetry
[6] = target: T3, Bromodomain-containing protein 7 (Homo sapiens) (UniProt Q9NPI1); test: Binding affinity to recombinant human BRD7 by differential scanning fluorimetry
T3 sequence (whole entry): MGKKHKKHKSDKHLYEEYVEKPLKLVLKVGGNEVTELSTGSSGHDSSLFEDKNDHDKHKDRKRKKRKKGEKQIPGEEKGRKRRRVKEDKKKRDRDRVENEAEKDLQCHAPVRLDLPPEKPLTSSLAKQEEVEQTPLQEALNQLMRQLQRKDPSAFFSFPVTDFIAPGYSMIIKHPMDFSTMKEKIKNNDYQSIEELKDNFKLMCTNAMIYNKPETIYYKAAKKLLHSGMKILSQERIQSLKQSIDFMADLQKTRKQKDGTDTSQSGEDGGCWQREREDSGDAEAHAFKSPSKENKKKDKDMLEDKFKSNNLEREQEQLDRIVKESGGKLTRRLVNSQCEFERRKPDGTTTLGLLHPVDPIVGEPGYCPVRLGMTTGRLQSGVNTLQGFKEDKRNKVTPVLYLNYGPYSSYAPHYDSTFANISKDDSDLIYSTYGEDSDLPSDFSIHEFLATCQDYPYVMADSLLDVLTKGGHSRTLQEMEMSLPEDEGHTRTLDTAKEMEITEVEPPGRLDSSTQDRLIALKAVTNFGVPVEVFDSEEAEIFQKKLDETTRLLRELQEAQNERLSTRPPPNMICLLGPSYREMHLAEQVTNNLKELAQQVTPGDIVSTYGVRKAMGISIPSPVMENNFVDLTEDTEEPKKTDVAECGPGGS

Sequence of Chromatin remodeling regulator CECR2 (Homo sapiens) (Q9BXF3 whole entry, looked up): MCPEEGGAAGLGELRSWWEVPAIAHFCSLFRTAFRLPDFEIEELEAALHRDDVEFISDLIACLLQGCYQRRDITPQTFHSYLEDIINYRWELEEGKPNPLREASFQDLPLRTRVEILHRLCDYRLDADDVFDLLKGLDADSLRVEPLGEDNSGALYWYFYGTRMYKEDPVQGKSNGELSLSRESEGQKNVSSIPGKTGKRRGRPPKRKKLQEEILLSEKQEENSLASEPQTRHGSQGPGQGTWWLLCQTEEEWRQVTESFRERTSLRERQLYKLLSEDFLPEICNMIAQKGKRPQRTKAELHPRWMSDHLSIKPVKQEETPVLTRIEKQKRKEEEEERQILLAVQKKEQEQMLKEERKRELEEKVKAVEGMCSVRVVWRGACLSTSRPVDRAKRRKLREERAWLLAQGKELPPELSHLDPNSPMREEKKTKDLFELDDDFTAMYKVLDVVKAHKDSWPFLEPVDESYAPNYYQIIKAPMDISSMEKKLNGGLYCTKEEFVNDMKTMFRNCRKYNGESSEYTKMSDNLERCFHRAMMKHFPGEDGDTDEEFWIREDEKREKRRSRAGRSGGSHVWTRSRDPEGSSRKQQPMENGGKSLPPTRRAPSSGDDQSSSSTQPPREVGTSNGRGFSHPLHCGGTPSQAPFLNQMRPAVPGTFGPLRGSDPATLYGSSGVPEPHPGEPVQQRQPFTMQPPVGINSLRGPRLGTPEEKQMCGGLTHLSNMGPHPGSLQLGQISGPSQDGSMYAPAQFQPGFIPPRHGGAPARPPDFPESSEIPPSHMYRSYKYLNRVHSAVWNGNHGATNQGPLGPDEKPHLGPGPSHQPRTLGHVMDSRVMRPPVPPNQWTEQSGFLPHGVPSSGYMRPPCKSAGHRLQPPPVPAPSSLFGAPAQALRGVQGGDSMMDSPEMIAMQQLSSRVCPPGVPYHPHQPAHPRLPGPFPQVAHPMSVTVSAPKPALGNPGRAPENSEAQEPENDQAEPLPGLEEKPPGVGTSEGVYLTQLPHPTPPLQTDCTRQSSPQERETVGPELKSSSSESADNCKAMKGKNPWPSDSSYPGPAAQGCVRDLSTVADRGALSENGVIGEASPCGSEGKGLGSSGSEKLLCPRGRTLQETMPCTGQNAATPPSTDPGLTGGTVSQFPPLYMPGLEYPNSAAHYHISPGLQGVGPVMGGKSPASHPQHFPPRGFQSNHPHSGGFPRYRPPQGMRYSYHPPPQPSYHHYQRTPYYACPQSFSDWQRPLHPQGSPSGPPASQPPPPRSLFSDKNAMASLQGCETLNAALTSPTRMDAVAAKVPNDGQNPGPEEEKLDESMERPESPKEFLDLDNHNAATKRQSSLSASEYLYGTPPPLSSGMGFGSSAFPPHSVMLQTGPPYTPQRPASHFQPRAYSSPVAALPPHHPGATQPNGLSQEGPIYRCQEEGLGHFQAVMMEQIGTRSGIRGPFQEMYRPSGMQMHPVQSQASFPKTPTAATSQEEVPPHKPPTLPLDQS

Compound	ΔTm [1] [°C]	also measured
NC1CCN(C(=O)C2CC2)CC1	1	
NC(=O)c1ccc2[nH]ccc2c1	2	
CN1Cc2ccccc2C1=O	1.5	
CC(=O)Nc1ccc2c(C)cc(=O)n(C)c2c1	2.6	inhibition [2]: Active
COc1cccc2onc(N)c12	0.8	
CNC(=O)c1cc(OCC(=O)Nc2ccccc2)ccc1OC1CCOCC1		ΔTm [3]: 3.3 °C; Kd [4]: 6.8 µM; ΔTm [5]: 7.1 °C; ΔTm [6]: 6.5 °C
Cn1c(=O)ccc2ccccc21	2	
Cc1cc(=O)n(C)c2cc(NS(C)(=O)=O)ccc12		inhibition [2]: Active
NCc1ccc(-c2csnn2)cc1	1	

Now from value to compound, other results behind:

ΔTm [1] [°C]	Compound	also measured
1.3	Oc1ccccc1-c1ccno1	
0.6	Cc1c(N)c(=O)n(-c2ccccc2)n1C	
0.9	Cc1nn(CCO)c2c1C(=O)CCC2	
0.7	COC(=O)c1ccc(N2CCOCC2)nc1	
0.8	NC(=O)c1cccc2c1OCCO2	
